Assay results taken from publication PMC6470533, “Structure–Activity Study, Characterization, and Mechanism of Action of an Antimicrobial Peptoid D2 and Its D- and L-Peptide Analogues” (Molecules, 2019).
Values after ≈ are worked out from the molar mass of the structure shown. Non-standard residues stand in square brackets, D forms with d. Residues, ends and D or L forms follow the SMILES beside them. N(1-naphthylmethyl)Gly = O=C(O)CNCc1cccc2ccccc12; d1Nal = N[C@H](Cc1cccc2ccccc12)C(=O)O; N(4-MeBn)Gly = Cc1ccc(CNCC(=O)O)cc1; Gly(N-CH2CH2OH) = O=C(O)CNCCO; dNle = CCCC[C@@H](N)C(=O)O; NBuGly = CCCCNCC(=O)O; Nlys = NCCCCNCC(=O)O; Sar = CNCC(=O)O

Key:
[1] = system: Methicillin sensitive Staphylococcus pseudintermedius (26916); format: cell-based; conditions: 18 h
[2] = system: Methicillin resistant Staphylococcus pseudintermedius, (C22963); format: cell-based; conditions: 18 h
[3] = system: Staphylococcus aureus (ATCC 29213); format: cell-based; conditions: ATCC 29213, 18 h
[4] = system: Pseudomonas aeruginosa (ATCC 27853); format: cell-based; conditions: ATCC 27853, 18 h
Method: To explore the antimicrobial activity of the library of peptides and peptidomimetics, they were tested against Acinetobacter baumannii, Corynebacterium auriscanis, Escherichia coli, Enterococcus faecalis, Enterococcus faecium, Klebsiella pneumonia, Proteus mirabilis, and Pseudomonas aeruginosa. Bacteria grown on agar plates for 18 h at 37 °C were diluted to ~1 × 10^8 CFU/mL in Mueller–Hinton broth (MHB). Two-fold serial dilutions of peptides and peptidomimetics in MHB II were inoculated with bacteria to achieve a final concentration of 5 × 10^5 CFU/mL in polypropylene 96 U-well microtiter plates (Almeco, Esbjerg, Denmark), followed by incubation at 37 °C in ambient air for 18 h. The MIC values were determined as the lowest concentration showing no visible bacterial growth. Experiments were performed twice (in technical triplicates) on two different days.

[5] = system: red blood cell (RBC); conditions: 0.5% RBC suspension in PBS, 1 h, 37 °C, read at 414 nm, normalized to mellitin and PBS, triplicates
Method: Briefly, 75 µL of peptide in PBS was mixed with 75 µL of a 0.5% red blood cell (RBC) suspension in PBS, and incubated for 1 h at 37 °C. The hemoglobin release was then measured at 414 nm and normalized, using mellitin as positive control and PBS as negative control. Experiments were done in triplicates.

| Compound | MIC MSSP [1] | MIC MRSP [2] | MIC SA [3] | MIC PA [4] | HA, percentage of hemolysis at 150 µM [5] |
| --- | --- | --- | --- | --- | --- |
| CCCCN(CC(N)=O)C(=O)CN(CCCCN)C(=O)CN(Cc1cccc2ccccc12)C(=O)CN(CCCCN)C(=O)CN(Cc1ccc(C)cc1)C(=O)CN(Cc1cccc2ccccc12)C(=O)CN(CCCCN)C(=O)CN [compound 1] (H-G[Nlys][N(1-naphthylmethyl)Gly][N(4-MeBn)Gly][Nlys][N(1-naphthylmethyl)Gly][Nlys][NBuGly]-NH2; N-terminus assumed) | 4 µg/mL (≈ 3.55 µM) | 4 µg/mL (≈ 3.55 µM) | 16 µg/mL (≈ 14.2 µM) | 32 µg/mL (≈ 28.4 µM) | 42% |
| CCCCN(CC(N)=O)C(=O)CN(CCCCN)C(=O)CN(Cc1cccc2ccccc12)C(=O)CN(CCCCN)C(=O)CN(Cc1ccc(C)cc1)C(=O)CN(Cc1cccc2ccccc12)C(=O)CNC(=O)CNCCCCN [compound 2] (H-[Nlys]G[N(1-naphthylmethyl)Gly][N(4-MeBn)Gly][Nlys][N(1-naphthylmethyl)Gly][Nlys][NBuGly]-NH2; N-terminus assumed) | 16 µg/mL (≈ 14.2 µM) | 8 µg/mL (≈ 7.1 µM) | 16 µg/mL (≈ 14.2 µM) | 64 µg/mL (≈ 56.8 µM) | 48% |
| CCCCN(CC(N)=O)C(=O)CN(CCCCN)C(=O)CN(Cc1cccc2ccccc12)C(=O)CN(CCCCN)C(=O)CN(Cc1ccc(C)cc1)C(=O)CNC(=O)CN(CCCCN)C(=O)CNCCCCN [compound 3] (H-[Nlys][Nlys]G[N(4-MeBn)Gly][Nlys][N(1-naphthylmethyl)Gly][Nlys][NBuGly]-NH2; N-terminus assumed) | 64 µg/mL (≈ 60.5 µM) | 64 µg/mL (≈ 60.5 µM) | >64 µg/mL | >64 µg/mL | 56% |
| CCCCN(CC(N)=O)C(=O)CN(CCCCN)C(=O)CN(Cc1cccc2ccccc12)C(=O)CN(CCCCN)C(=O)CNC(=O)CN(Cc1cccc2ccccc12)C(=O)CN(CCCCN)C(=O)CNCCCCN [compound 4] (H-[Nlys][Nlys][N(1-naphthylmethyl)Gly]G[Nlys][N(1-naphthylmethyl)Gly][Nlys][NBuGly]-NH2; N-terminus assumed) | 64 µg/mL (≈ 58.5 µM) | 32 µg/mL (≈ 29.2 µM) | >64 µg/mL | >64 µg/mL | 40% |
| CCCCN(CC(N)=O)C(=O)CN(CCCCN)C(=O)CN(Cc1cccc2ccccc12)C(=O)CNC(=O)CN(Cc1ccc(C)cc1)C(=O)CN(Cc1cccc2ccccc12)C(=O)CN(CCCCN)C(=O)CNCCCCN [compound 5] (H-[Nlys][Nlys][N(1-naphthylmethyl)Gly][N(4-MeBn)Gly]G[N(1-naphthylmethyl)Gly][Nlys][NBuGly]-NH2; N-terminus assumed) | 4 µg/mL (≈ 3.55 µM) | 4 µg/mL (≈ 3.55 µM) | 32 µg/mL (≈ 28.4 µM) | 16 µg/mL (≈ 14.2 µM) | 25% |
| CCCCN(CC(N)=O)C(=O)CN(CCCCN)C(=O)CNC(=O)CN(CCCCN)C(=O)CN(Cc1ccc(C)cc1)C(=O)CN(Cc1cccc2ccccc12)C(=O)CN(CCCCN)C(=O)CNCCCCN [compound 6] (H-[Nlys][Nlys][N(1-naphthylmethyl)Gly][N(4-MeBn)Gly][Nlys]G[Nlys][NBuGly]-NH2; N-terminus assumed) | >64 µg/mL | >64 µg/mL | >64 µg/mL | >64 µg/mL | 6% |
| CCCCN(CC(N)=O)C(=O)CNC(=O)CN(Cc1cccc2ccccc12)C(=O)CN(CCCCN)C(=O)CN(Cc1ccc(C)cc1)C(=O)CN(Cc1cccc2ccccc12)C(=O)CN(CCCCN)C(=O)CNCCCCN [compound 7] (H-[Nlys][Nlys][N(1-naphthylmethyl)Gly][N(4-MeBn)Gly][Nlys][N(1-naphthylmethyl)Gly]G[NBuGly]-NH2; N-terminus assumed) | 8 µg/mL (≈ 7.1 µM) | 4 µg/mL (≈ 3.55 µM) | 16 µg/mL (≈ 14.2 µM) | 16 µg/mL (≈ 14.2 µM) | 85% |
| Cc1ccc(CN(CC(=O)N(CCCCN)CC(=O)N(CC(=O)N(CCCCN)CC(=O)NCC(N)=O)Cc2cccc3ccccc23)C(=O)CN(Cc2cccc3ccccc23)C(=O)CN(CCCCN)C(=O)CNCCCCN)cc1 [compound 8] (H-[Nlys][Nlys][N(1-naphthylmethyl)Gly][N(4-MeBn)Gly][Nlys][N(1-naphthylmethyl)Gly][Nlys]G-NH2; N-terminus assumed) | 8 µg/mL (≈ 7 µM) | 8 µg/mL (≈ 7 µM) | 32 µg/mL (≈ 28 µM) | 32 to 64 µg/mL | 49% |
| CCCCN(CC(N)=O)C(=O)CN(CCCCN)C(=O)CN(Cc1cccc2ccccc12)C(=O)CN(C)C(=O)CN(Cc1ccc(C)cc1)C(=O)CN(Cc1cccc2ccccc12)C(=O)CN(CCCCN)C(=O)CNCCCCN [compound 9] (H-[Nlys][Nlys][N(1-naphthylmethyl)Gly][N(4-MeBn)Gly][Sar][N(1-naphthylmethyl)Gly][Nlys][NBuGly]-NH2; N-terminus assumed) | 4 µg/mL (≈ 3.5 µM) | 4 µg/mL (≈ 3.5 µM) | 16 µg/mL (≈ 14 µM) | 32 µg/mL (≈ 28 µM) | 16% |
| CCCCN(CC(N)=O)C(=O)CN(CCCCN)C(=O)CN(Cc1cccc2ccccc12)C(=O)CN(Cc1ccc(C)cc1)C(=O)CN(Cc1ccc(C)cc1)C(=O)CN(Cc1cccc2ccccc12)C(=O)CN(CCCCN)C(=O)CNCCCCN [compound 10] (H-[Nlys][Nlys][N(1-naphthylmethyl)Gly][N(4-MeBn)Gly][N(4-MeBn)Gly][N(1-naphthylmethyl)Gly][Nlys][NBuGly]-NH2; N-terminus assumed) | 8 µg/mL (≈ 6.5 µM) | 8 µg/mL (≈ 6.5 µM) | 8 µg/mL (≈ 6.5 µM) | 16 µg/mL (≈ 13 µM) | 69% |
| CCCCN(CC(N)=O)C(=O)CN(CCCCN)C(=O)CN(Cc1cccc2ccccc12)C(=O)CN(Cc1cccc2ccccc12)C(=O)CN(Cc1ccc(C)cc1)C(=O)CN(Cc1cccc2ccccc12)C(=O)CN(CCCCN)C(=O)CNCCCCN [compound 11] (H-[Nlys][Nlys][N(1-naphthylmethyl)Gly][N(4-MeBn)Gly][N(1-naphthylmethyl)Gly][N(1-naphthylmethyl)Gly][Nlys][NBuGly]-NH2; N-terminus assumed) | 8 µg/mL (≈ 6.31 µM) | 8 µg/mL (≈ 6.31 µM) | 8 µg/mL (≈ 6.31 µM) | 16 µg/mL (≈ 12.6 µM) | 87% |
| CCCCN(CC(N)=O)C(=O)CN(CCCCN)C(=O)CN(Cc1cccc2ccccc12)C(=O)CN(CCO)C(=O)CN(Cc1ccc(C)cc1)C(=O)CN(Cc1cccc2ccccc12)C(=O)CN(CCCCN)C(=O)CNCCCCN [compound 12] (H-[Nlys][Nlys][N(1-naphthylmethyl)Gly][N(4-MeBn)Gly][Gly(N-CH2CH2OH)][N(1-naphthylmethyl)Gly][Nlys][NBuGly]-NH2; N-terminus assumed) | 8 µg/mL (≈ 6.83 µM) | 8 µg/mL (≈ 6.83 µM) | 32 µg/mL (≈ 27.3 µM) | >64 µg/mL | 5% |
| CCCCN(CC(N)=O)C(=O)CN(CCCCN)C(=O)CN(Cc1cccc2ccccc12)C(=O)CN(CCCCN)C(=O)[C@@H](Cc1ccccc1)NC(=O)[C@@H](Cc1cccc2ccccc12)NC(=O)[C@@H](CCCCN)NC(=O)[C@H](N)CCCCN [compound 14] (H-[dK][dK][d1Nal][dF][Nlys][N(1-naphthylmethyl)Gly][Nlys][NBuGly]-NH2; N-terminus assumed) | 4 µg/mL (≈ 3.38 µM) | 4 µg/mL (≈ 3.38 µM) | 16 µg/mL (≈ 13.5 µM) | 64 µg/mL (≈ 54 µM) | – |
| CCCC[C@@H](NC(=O)CN(CCCCN)C(=O)[C@@H](Cc1cccc2ccccc12)NC(=O)CN(CCCCN)C(=O)[C@@H](Cc1ccccc1)NC(=O)[C@@H](Cc1cccc2ccccc12)NC(=O)CN(CCCCN)C(=O)CNCCCCN)C(N)=O [compound 15] (H-[Nlys][Nlys][d1Nal][dF][Nlys][d1Nal][Nlys][dNle]-NH2; N-terminus assumed) | 4 µg/mL (≈ 3.38 µM) | 4 µg/mL (≈ 3.38 µM) | 32 µg/mL (≈ 27 µM) | >64 µg/mL | – |
| CCCCN(CC(N)=O)C(=O)[C@@H](CCCCN)NC(=O)CN(Cc1cccc2ccccc12)C(=O)[C@@H](CCCCN)NC(=O)CN(Cc1ccc(C)cc1)C(=O)CN(Cc1cccc2ccccc12)C(=O)[C@@H](CCCCN)NC(=O)[C@H](N)CCCCN [compound 16] (H-[dK][dK][N(1-naphthylmethyl)Gly][N(4-MeBn)Gly][dK][N(1-naphthylmethyl)Gly][dK][NBuGly]-NH2; N-terminus assumed) | 4 µg/mL (≈ 3.34 µM) | 4 µg/mL (≈ 3.34 µM) | 16 µg/mL (≈ 13.3 µM) | 64 µg/mL (≈ 53.4 µM) | – |
